In brackets after ≈: the same amount, converted by molar mass.
Assays:
Staphylococcus aureus [1] = assay: Antibacterial activity against methicillin resistant Staphylococcus aureus M14 incubated for 16 to 18 hrs by broth dilution method; type: functional; details: time 16-18 hrs
Escherichia coli = assay: Antibacterial activity against Escherichia coli ATCC 25922 incubated for 16 to 18 hrs by broth dilution method; type: functional; details: time 16-18 hrs
Staphylococcus aureus [2] = assay: Antibacterial activity against methicillin resistant Staphylococcus aureus M16 incubated for 16 to 18 hrs by broth dilution method; type: functional; details: time 16-18 hrs
Staphylococcus aureus [3] = assay: Antibacterial activity against methicillin resistant Staphylococcus aureus M22 incubated for 16 to 18 hrs by broth dilution method; type: functional; details: time 16-18 hrs
Staphylococcus aureus [4] = assay: Antibacterial activity against methicillin resistant Staphylococcus aureus M17 incubated for 16 to 18 hrs by broth dilution method; type: functional; details: time 16-18 hrs
Staphylococcus aureus [5] = assay: Antibacterial activity against methicillin resistant Staphylococcus aureus M11 incubated for 16 to 18 hrs by broth dilution method; type: functional; details: time 16-18 hrs
Staphylococcus aureus [6] = assay: Antibacterial activity against methicillin resistant Staphylococcus aureus N315 incubated for 16 to 18 hrs by broth dilution method; type: functional; details: time 16-18 hrs
Staphylococcus aureus [7] = assay: Antibacterial activity against methicillin resistant Staphylococcus aureus M23 incubated for 16 to 18 hrs by broth dilution method; type: functional; details: time 16-18 hrs
Staphylococcus aureus [8] = assay: Antibacterial activity against methicillin resistant Staphylococcus aureus M12 incubated for 16 to 18 hrs by broth dilution method; type: functional; details: time 16-18 hrs
Staphylococcus aureus [9] = assay: Antibacterial activity against Staphylococcus aureus ATCC 29213 incubated for 16 to 18 hrs by broth dilution method; type: functional; details: time 16-18 hrs
Staphylococcus aureus [10] = assay: Antibacterial activity against methicillin resistant Staphylococcus aureus M20 incubated for 16 to 18 hrs by broth dilution method; type: functional; details: time 16-18 hrs
[11] = Hemolytic activity in sheep RBC incubated for 1 hr; type: toxicity, cell-based, Ovis aries, Erythrocyte; details: sheep red blood cells (erythrocytes)
Staphylococcus aureus [12] = assay: Antibacterial activity against methicillin resistant Staphylococcus aureus M21 incubated for 16 to 18 hrs by broth dilution method; type: functional; details: time 16-18 hrs
[13] = Selectivity index, ratio of HC50 for sheep RBC to MIC for Staphylococcus aureus ATCC 29213; type: toxicity; details: sheep red blood cells, read-out: Selectivity Index
Staphylococcus aureus [14] = assay: Antibacterial activity against methicillin resistant Staphylococcus aureus M13 incubated for 16 to 18 hrs by broth dilution method; type: functional; details: time 16-18 hrs

| SMILES | MIC (Staphylococcus aureus [1]) | MIC (Escherichia coli) | MIC (Staphylococcus aureus [2]) | MIC (Staphylococcus aureus [3]) | MIC (Staphylococcus aureus [4]) | MIC (Staphylococcus aureus [5]) | MIC (Staphylococcus aureus [6]) | MIC (Staphylococcus aureus [7]) | MIC (Staphylococcus aureus [8]) | MIC (Staphylococcus aureus [9]) | MIC (Staphylococcus aureus [10]) | HC50 at 1 h [11] | MIC (Staphylococcus aureus [12]) | selectivity ratio [13] | MIC (Staphylococcus aureus [14]) |
| --- | --- | --- | --- | --- | --- | --- | --- | --- | --- | --- | --- | --- | --- | --- | --- |
| C=CCc1cc(-c2ccc(OCCC[N+](C)(C)CC(=O)NCCCC)c(CC=C)c2)c2oc(-c3ccc(F)c(Cl)c3)nc2c1.[Br-] | 4 µg/mL | > 128 µg/mL | 8 µg/mL | 16 µg/mL | 32 µg/mL | 8 µg/mL | 16 µg/mL | 8 µg/mL | 8 µg/mL | 64 µg/mL | 8 µg/mL | > 320 µg/mL | 8 µg/mL | > 5 | 8 µg/mL |
| C=CCc1cc(-c2ccc(OCCC[N+](C)(C)CC(=O)NCCCC)c(CC=C)c2)c2oc(-c3ccc(Cl)c(Cl)c3)nc2c1.[Br-] | 32 µg/mL | > 128 µg/mL | 32 µg/mL | 64 µg/mL | 128 µg/mL | 64 µg/mL | 128 µg/mL | 64 µg/mL | 32 µg/mL | 128 µg/mL | 32 µg/mL | 87.6 µg/mL | 32 µg/mL | 0.7 | 16 µg/mL |
| C=CCc1cc(-c2ccc(OCCC[N+](C)(C)CC(=O)NCCCC)c(CC=C)c2)c2oc(-c3ccc(Br)cc3)nc2c1.[Br-] | 8 µg/mL | 128 µg/mL | 8 µg/mL | 16 µg/mL | 16 µg/mL | 8 µg/mL | 64 µg/mL | 8 µg/mL | 16 µg/mL | 64 µg/mL | 8 µg/mL | > 320 µg/mL | 8 µg/mL | > 5 | 8 µg/mL |
| C=CCc1ccc(O)c(-c2ccc(O)c(CC=C)c2)c1 [HONOKIOL] | 16 µg/mL (≈ 60.1 µM) | > 128 µg/mL | 16 µg/mL (≈ 60.1 µM) | 16 µg/mL (≈ 60.1 µM) | 16 µg/mL (≈ 60.1 µM) | 16 µg/mL (≈ 60.1 µM) | 8 µg/mL (≈ 30 µM) | 16 µg/mL (≈ 60.1 µM) | 8 µg/mL (≈ 30 µM) | 64 µg/mL (≈ 240 µM) | 8 µg/mL (≈ 30 µM) | > 80 µg/mL | 16 µg/mL (≈ 60.1 µM) | > 1.25 | 16 µg/mL (≈ 60.1 µM) |
| C=CCc1cc(-c2ccc(OCCC[N+](C)(C)CC(=O)NCCCC)c(CC=C)c2)c2oc(-c3cc(F)c(F)c(F)c3)nc2c1.[Br-] | 32 µg/mL | > 128 µg/mL | 32 µg/mL | 64 µg/mL | 64 µg/mL | 32 µg/mL | 64 µg/mL | 32 µg/mL | 128 µg/mL | > 128 µg/mL | 64 µg/mL | 64.4 µg/mL | 32 µg/mL | < 0.5 | 32 µg/mL |
| C=CCc1cc(-c2ccc(OCCC[N+](C)(C)CC(=O)NCCCC)c(CC=C)c2)c2oc(-c3ccc(F)c(F)c3)nc2c1.[Br-] | 4 µg/mL | > 128 µg/mL | 4 µg/mL | 16 µg/mL | 4 µg/mL | 8 µg/mL | 32 µg/mL | 4 µg/mL | 8 µg/mL | 8 µg/mL | 4 µg/mL | 222 µg/mL | 4 µg/mL | 27.7 | 4 µg/mL |
| C=CCc1cc(-c2ccc(OCCC[N+](C)(C)CC(=O)NCCCC)c(CC=C)c2)c2oc(-c3ccc(OC)cc3)nc2c1.[Br-] | 2 µg/mL | > 128 µg/mL | 2 µg/mL | 2 µg/mL | 4 µg/mL | 2 µg/mL | 4 µg/mL | 2 µg/mL | 4 µg/mL | 8 µg/mL | 2 µg/mL | 320 µg/mL | 2 µg/mL | > 40 | 4 µg/mL |
| C=CCc1cc(-c2ccc(OCCC[N+](C)(C)CC(=O)NCCCC)c(CC=C)c2)c2oc(-c3ccc(Br)cc3Br)nc2c1.[Br-] | 32 µg/mL | > 128 µg/mL | 16 µg/mL | 32 µg/mL | 64 µg/mL | 32 µg/mL | 64 µg/mL | 32 µg/mL | 16 µg/mL | 128 µg/mL | 16 µg/mL | 170 µg/mL | 16 µg/mL | 1.3 | 16 µg/mL |
| C=CCc1cc(-c2ccc(OCCC[N+](C)(C)CC(=O)NCCCC)c(CC=C)c2)c2oc(-c3cc(Br)ccc3F)nc2c1.[Br-] | 4 µg/mL | 128 µg/mL | 8 µg/mL | 8 µg/mL | 4 µg/mL | 8 µg/mL | 32 µg/mL | 8 µg/mL | 8 µg/mL | 64 µg/mL | 4 µg/mL | > 320 µg/mL | 4 µg/mL | > 5 | 4 µg/mL |
| C=CCc1cc(-c2ccc(OCCC[N+](C)(C)CC(=O)NCCCC)c(CC=C)c2)c2oc(-c3ccccc3Br)nc2c1.[Br-] | 4 µg/mL | 128 µg/mL | 2 µg/mL | 4 µg/mL | 4 µg/mL | 4 µg/mL | 8 µg/mL | 4 µg/mL | 4 µg/mL | 4 µg/mL | 4 µg/mL | > 320 µg/mL | 4 µg/mL | > 80 | 2 µg/mL |
| C=CCc1cc(-c2ccc(OCCC[N+](C)(C)CC(=O)NCCCC)c(CC=C)c2)c2oc(-c3cc(Cl)cc(Cl)c3)nc2c1.[Br-] | 64 µg/mL | > 128 µg/mL | 64 µg/mL | 128 µg/mL | 32 µg/mL | > 128 µg/mL | 128 µg/mL | 128 µg/mL | 128 µg/mL | 128 µg/mL | 128 µg/mL | 81.3 µg/mL | 32 µg/mL | 0.6 | 32 µg/mL |
| C=CCc1cc(-c2ccc(OCCC[N+](C)(C)CC(=O)NCCCC)c(CC=C)c2)c2oc(-c3ccc(Cl)cc3F)nc2c1.[Br-] | 64 µg/mL | 128 µg/mL | 128 µg/mL | 128 µg/mL | 128 µg/mL | > 128 µg/mL | > 128 µg/mL | 128 µg/mL | 128 µg/mL | > 128 µg/mL | 128 µg/mL | > 640 µg/mL | 128 µg/mL |  | > 128 µg/mL |
| C[C@@H](O)[C@H]1C(=O)N2C(C(=O)O)=C(S[C@@H]3CN[C@H](C(=O)N(C)C)C3)[C@H](C)[C@H]12 [MEROPENEM] |  | 0.063 µg/mL (≈ 0.164 µM) |  |  |  |  |  |  |  |  |  |  |  |  |  |
| C=CCc1cc(-c2ccc(OCCC[N+](C)(C)CC(=O)NCCCC)c(CC=C)c2)c2oc(-c3ccc(Cl)cc3Br)nc2c1.[Br-] | 128 µg/mL | > 128 µg/mL | 128 µg/mL | 128 µg/mL | > 128 µg/mL | 128 µg/mL | > 128 µg/mL | > 128 µg/mL | > 128 µg/mL | > 128 µg/mL | > 128 µg/mL | > 320 µg/mL | > 128 µg/mL |  | > 128 µg/mL |
